The values below come from ChEMBL document CHEMBL1687773 (Antimicrob Agents Chemother, 2010).

What is called EC50 is the concentration needed to bring the measured effect to its halfway point.

In experiment [1] the test system is Human immunodeficiency virus 1. The experiment can be described thus: Antiviral activity against HIV1 NL4-3 infected in human MT2 cells assessed as inhibition of virus-induced cell death at 0.5 multiplicities of infection after 6 days. The experiment is classed as functional, organism-based. To be noted: Human immunodeficiency virus 1, NL4-3, MT2, 144 h.
In experiment [2] the test system is Human immunodeficiency virus 1. The experiment can be described thus: Antiviral activity against HIV1 NL4-3 harboring reverse transcriptase V108I, H221Y, F227F/L, M230M/I mutant infected in human SupT1 cells derived from 11 viral passages with lersivirine assessed as inhibition of viral replication after 21 days relative to drug sensitive HIV1 NL4-3. The format is functional, SUP-T1.

Experiment [3] has as its system Human immunodeficiency virus 1. The experiment is described as follows: Antiviral activity against HIV1 NL4-3 harboring reverse transcriptase V108I, E138K, F227F/L mutant infected in human SupT1 cells derived from 11 viral passages with lersivirine assessed as inhibition of viral replication after 21 days relative to drug sensitive HIV1 NL4-3. The experiment is classed as functional, SUP-T1.

The subject of experiment [4] is Human immunodeficiency virus 1. The experiment is described as follows: Antiviral activity against HIV1 NL4-3 harboring reverse transcriptase L100I, K103Q, H221H/Y mutant infected in human SupT1 cells derived from 11 viral passages with efavirenz assessed as inhibition of viral replication after 21 days relative to drug sensitive HIV1 NL4-3. The format is functional, SUP-T1.

In experiment [5] the test system is Human immunodeficiency virus 1. The experiment is described as follows: Antiviral activity against HIV1 NL4-3 infected in human SupT1 cells derived from 11 viral passages assessed as inhibition of viral replication after 21 days relative to drug sensitive HIV1 NL4-3. The experiment is classed as functional, SUP-T1.
Experiment [6] relates to Human immunodeficiency virus 1. The experiment can be described thus: Antiviral activity against HIV1 NL4-3 harboring reverse transcriptase V108I, E138K mutant infected in human SupT1 cells derived from 9 viral passages with lersivirine assessed as inhibition of viral replication after 21 days relative to drug sensitive HIV1 NL4-3. The format is functional, SUP-T1.

In the case of `CC(C)(C)NC(=O)[C@@H]1CN(Cc2cccnc2)CCN1C[C@@H](O)C[C@@H](Cc1ccccc1)C(=O)N[C@H]1c2ccccc2C[C@H]1O`, in experiment [1], the EC50 stood at 0.5 nM.
Take `C=C(C)[C@@H]1CC[C@]2(C(=O)O)CC[C@]3(C)[C@H](CC[C@@H]4[C@@]5(C)CC[C@H](OC(=O)CC(C)(C)C(=O)O)C(C)(C)[C@@H]5CC[C@]43C)[C@@H]12` [BEVIRIMAT]: the EC50 in experiment [1] was 0.5 nM.
Turning to `CC(C)Nc1cccnc1N1CCN(C(=O)c2cc3cc(NS(C)(=O)=O)ccc3[nH]2)CC1` [DELAVIRDINE], the “fold change (FC)” value in experiment [2] is recorded as 0.2; in experiment [3], 1.8; in experiment [4] it was 16.4; in experiment [5], 0.3; in experiment [6] it was 1.5.
Take `Cc1cc(C#N)cc(C)c1Oc1nc(Nc2ccc(C#N)cc2)nc(N)c1Br` [ETRAVIRINE]: the 50% effective concentration (EC50) in experiment [1] is 0.5 nM.
Consider `Cc1ccnc2c1NC(=O)c1cccnc1N2C1CC1` [NEVIRAPINE], for which the “fold change (FC)” value in experiment [2] worked out at 6.4; in experiment [3], 12.2; in experiment [4] it was 1; in experiment [5], 0.2; in experiment [6], 0.9.
For `Cc1cn([C@H]2C[C@H](N=[N+]=[N-])[C@@H](CO)O2)c(=O)[nH]c1=O` [ZIDOVUDINE], in that order: 0.1, 0.6, 0.1, 0.2 and 0.4.
